Measured values as given in patent US20250302846A1, “ANTIBIOTIC COMPOSITION AND METHODS OF USE THEREOF” (THE REGENTS OF THE UNIVERSITY OF COLORADO A BODY CORPORATE, priority 2022, published 2025).
Values after ≈ are worked out from the molar mass of the structure shown. Like-named read-outs stand apart in the source and are kept apart here.

Tests used:
[1] = tested on: S. Typhimurium; assay: Propidium iodide membrane barrier assay; assay type: cell-based; settings: LB with PMB [0.5 μg/mL]; D66 at 2x MIC95; SDS [0.005%] positive control
Protocol: FIG. 3A-F. D66 rapidly perturbs the bacterial cytoplasmic membrane with minor disruption of barrier function. Mid-log phase S. Typhimurium cells grown in LB with 0.5 μg/mL PMB were used for all experiments. A) Cell membrane potential was monitored with the fluorescent dye DiSC3 (5). Cells were treated at time 0 with DMSO, JD1 [70 μM], or D66. Data were normalized to DMSO at time 0 and corrected for the quenching effect of D66 (FIG. 6A, B) B) Cell membrane permeability was monitored by PI fluorescence. Cells were treated at time 0 with DMSO, SDS [0.005%] or D66. Samples were processed at the time points shown. A one-way ANOVA with a Dunnet's multiple comparison test, * P<0.005. C-F) Growth curves and kill-curves of cells treated at time 0 with either DMSO or D66. Culture aliquots were monitored for OD600 (C, E) or plated for enumeration of CFU (D, F). Data are presented as fold change. Mean and SEM of three biological replicates with technical triplicates are shown in all panels.
Propidium iodide membrane barrier assays: Compound, DMSO, or SDS was added to mid-log phase cells to the desired concentration, and cultures were sampled at 0, 10, 15, 20, 30 and 45 minutes. Five minutes before harvesting, PI [10 μg/mL] (Life Technologies) was added. Cells were pelleted, washed twice, resuspended in PBS, and monitored (ex535/em617 nm) using a BioTek Synergy H1 plate reader.

[2] = tested on: staphylococcal strains; assay: MIC95 quoted for staphylococcal persister and biofilm experiments; assay type: cell-based; settings: read-out: MIC95
Protocol: A-D) Overnight cultures of the indicated strains were treated at time 0 with DMSO, ciprofloxacin [4 μg/mL], vancomycin [10 μg/mL], or the corresponding MIC95 concentration of D66 (1x MIC95=130 μM, 49 μg/mL). Cultures were plated for enumeration of CFU at time points indicated. Mean and SEM of three biological replicates. E) RAW 264.7 macrophage-like cells and HeLa cells were infected with S. aureus USA300, at MOIs of 0.5 and 2.5, respectively. Cells were treated two hours after infection with DMSO (gray circle on Y axis), or dilutions of D66 from 40 μM. After 8 hours of infection, cells were lysed and plated for enumeration of CFU. Mean and SEM of biological duplicates performed with technical triplicates each with six dilutions of D66. The IC50 value that was calculatable is indicated.
Biofilm formation was monitored after 18 hours in TSB with subinhibitory concentrations of DMSO, rifampin (1x MIC95=0.05 μg/mL), vancomycin (1x MIC95=1 μg/mL), or D66 (1x MIC95=130 μM). A-D) Crystal violet staining for accumulated biofilm mass measured at A595. Mean and […]

[3] = tested on: RAW 264.7 cells; assay: Mitochondrial membrane potential with TMRM; settings: uninfected RAW 264.7 cells; D66 first two hours; CCCP 7 μM

CCCCCCCCCCCCOS(=O)(=O)[O-].[Na+] [SDS, reference compound]
time of treatment after which PI signal increased [1]: 10 min

CO[C@H]1/C=C/O[C@@]2(C)Oc3c(C)c(O)c4c(O)c(c(/C=N/N5CCN(C)CC5)c(O)c4c3C2=O)NC(=O)/C(C)=C\C=C\[C@H](C)[C@H](O)[C@@H](C)[C@@H](O)[C@@H](C)[C@H](OC(C)=O)[C@@H]1C [rifampin, reference compound]
MIC ([2]; staphylococcal strains): 0.05 µg/mL (≈ 0.0608 µM)

N#CC(C#N)=NNc1cccc(Cl)c1 [CCCP, carbonyl cyanide m-chlorophenyl hydrazone, reference compound]
TMRM fluorescence (mitochondrial membrane potential) [3]: decreased TMRM fluorescence

CN[C@H](CC(C)C)C(=O)N[C@H]1C(=O)N[C@@H](CC(N)=O)C(=O)N[C@H]2C(=O)N[C@H]3C(=O)N[C@H](C(=O)N[C@H](C(=O)O)c4cc(O)cc(O)c4-c4cc3ccc4O)[C@H](O)c3ccc(c(Cl)c3)Oc3cc2cc(c3O[C@@H]2O[C@H](CO)[C@@H](O)[C@H](O)[C@H]2O[C@H]2C[C@](C)(N)[C@H](O)[C@H](C)O2)Oc2ccc(cc2Cl)[C@H]1O [vancomycin, reference compound]
MIC [2]: 1 µg/mL (≈ 0.69 µM)
